Entries after “also recorded” stand apart in the source; their conditions may differ. Read-outs that look alike come from different tables or passages of the source.
Tests used:
[1] = Plasma drug levels and pharmacokinetic parameters in T. evansi infected goats (HPLC/MS-MS); format: in vivo, goat
Method: In addition, blood samples were taken shortly before each compound injection was applied, to determine the trough levels. All samples were centrifuged at 3000 g for ten minutes. Subsequently, the plasma was removed, placed into sterile polypropylene cryotubes and stored away from light at −80°C. Mass spectrometry analysis was performed on all plasma samples using 25 µl aliquots. Calibrators were prepared separately for each analyte. Stock solutions of diminazene, DB 75, DB 867 and DB1192 were prepared in water. Curves were then prepared and analysed in duplicate, at both the beginning and the end of the analytical run. Concentrations of diminazene, DB 75, DB 867 and DB 1192 were determined by Liquid Chromatography/Triple Quadrupole Mass Spectrometry (HPLC/MS-MS). The pharmacokinetic parameters were determined using Microsoft® Excel software, with a functional set of add-ins applied, together with a graphical programme (GraphPad Prism 5, GraphPad Software Inc, USA). The compound plasma levels can be seen in Figure 1 for a) the standard drug, diminazene, b) DB 1192, c) DB 75 and d) DB 867. The plasma samples taken were analysed by HPLC/MS-MS to determine the drug concentrations (in ng/ml). From these values, the averages from the experimental goats in each group were calculated and drug concentration versus time curves were plotted with a line of best fit applied, corresponding to either the high or low compound dose tested.

T. evansi [2] = experiment: Curative efficacy in T. evansi experimentally infected goats (five month follow up, overall outcome); format: in vivo, Trypanosoma evansi (Canaries (Rubio) strain) in goats
Method: Various diagnostic tests were used to evaluate the curative efficacy of the compounds, over a five month follow up period. The haematocrit centrifugation technique, was utilised as the standard parasitological test. The serological CATT/T. evansi test was performed to determine the presence or absence of antibodies. As a validating molecular based technique, a mini-exon 18S ribosomal PCR method designed for the detection of parasite DNA was also applied.
Fresh camel blood (400 µl) was collected from the jugular vein of a camel and 200 µl volumes inoculated (i.p.) into two mice. Once a parasitaemia had established, blood was collected via cardiac puncture and mixed with phosphate buffered saline with glucose (PSG) to provide the T. evansi suspension used for experimental goat infection. Thereafter, all 25 goats were experimentally infected intravenously (i.v.), with 10^6 parasites/goat.
Goats were divided into 8 groups, where group 1 contained four goats whilst group's 2 to 8 each contained three goats. […] All test compounds were administered intra-muscularly with four applications, on days 32, 34, 36 and 38 post-infection. Thereafter, follow up diagnostic methods were carried out for five months post treatment.

T. evansi [3] = test system: T. evansi; parameters: method as in PMID 20149544; conditions: cited from earlier work; for in vitro IC50: 72 hour assay against T. evansi; for estimated MIC (minimal inhibitory concentration): estimated at least four times the IC50
[4] = 1.25 mg/kg x4, 72 hours after final injection
[5] = 2.5 mg/kg x4, 72 hours after final injection
[6] = 2.5 mg/kg x4, 192 hours after final injection
[7] = goat plasma, four applications of 1.25 mg/kg i.m., average plasma levels
[8] = goat plasma, four applications of 2.5 mg/kg i.m., average plasma levels
[9] = 1.25 mg/kg i.m. x4, five month follow up
[10] = 2.5 mg/kg i.m. x4, five month follow up

Row | Compound | concentration in goat plasma [1, 4] | concentration in goat plasma [1, 5] | concentration in goat plasma [1, 6] | AUC [1, 7] | Cmax [1, 7] [µg/mL] | MRT [1, 7] [h] | T1/2 [1, 7] [h] | AUC [1, 8] | Cmax [1, 8] [µg/mL] | MRT [1, 8] [h] | T1/2 [1, 8] [h] | curative efficacy (T. evansi [2]; [9]) | curative efficacy (T. evansi [2]; [10]) | in vitro IC50 (T. evansi [3]) [ng/mL] | estimated MIC (minimal inhibitory concentration) (T. evansi [3]) | other results
1 | Cc1cc(C(=N)N)ccc1-c1cc2cc(C(=N)N)ccc2[nH]1 [DB 1192] | 0.018 µg/mL | 0.032 µg/mL | 0.01 µg/mL | 4809 | ≥0.836 | 52.3 | 37.0 | 9861 | ≥1.563 | 38.4 | 30.5 | incapable of curing goats; also recorded: not effective | incapable of curing goats; also recorded: not effective | 10.5 | around 40 ng/ml | time until plasma level fell below the therapeutic threshold ([1]; both doses (2.5 and 1.25 mg/kg), post treatment): ≤ 24 h
2 | N=C(N)c1ccc(-c2ccc(-c3ccc(C(=N)N)cc3)o2)cc1 [DB 75] | 2.223 µg/mL | 1.923 µg/mL | above 1500 ng/ml | 394305 | ≥3.115 | 89.5 | 279.3 | 358215 | ≥2.53 | 93.4 | 473.7 | Complete cure; also recorded: complete curative efficacy | Complete curative efficacy | 2.3 | 9.2 ng/mL | concentration in goat plasma ([1]; 1.25 mg/kg x4, 192 hours after final injection): above 1500 ng/ml
3 | N=C(N)c1ccc(/N=N/Nc2ccc(C(=N)N)cc2)cc1 [Diminazene, Diminazene aceturate, reference compound] |  |  |  |  |  |  |  |  |  |  |  |  |  | 12.5 | 50 ng/mL | half-life ([1]; Canarian, im, goat plasma, four applications of 5 mg/kg i.m., average plasma levels): 59.1 h; AUC ([1]; Canarian, im, goat plasma, four applications of 5 mg/kg i.m., average plasma levels, read-out: AUC): 194 µg·h/mL; Cmax ([1]; Canarian, im, goat plasma, four applications of 5 mg/kg i.m., average plasma levels, read-out: Cmax): ≥ 8.64 µg/mL; MRT ([1]; Canarian, im, goat plasma, four applications of 5 mg/kg i.m., average plasma levels, read-out: MRT): 70.7 h; concentration at 72 h ([1]; goat, plasma, intramuscular, 5 mg/kg x4, 72 hours after the end of treatment): 1.11 µg/mL; concentration at 192 h ([1]; goat, plasma, intramuscular, 5 mg/kg x4, 192 hours after final injection): 0.568 µg/mL; curative efficacy (T. evansi [2]; 5 mg/kg i.m. x4, five month follow up): Complete curative efficacy
4 | N=C(N)c1ccc(-c2ccc(-c3ccc(C(=N)N)nc3)o2)cc1 [DB 867] | above 1850 ng/ml | above 1850 ng/ml |  | 381604 | ≥3.663 | 87.9 | 202.5 | 360895 | ≥3.31 | 90.0 | 221.4 | a relapse was seen during the final month of the follow up period | Complete curative efficacy; also recorded: cured; also recorded: curative efficacy was seen | 1.7 | 6.8 ng/mL | time to relapse post treatment (T. evansi [2]; 1.25 mg/kg i.m. x4): 4.5 months

Source: PMC3117839, “Efficacy Study of Novel Diamidine Compounds in a Trypanosoma evansi Goat Model” (PLoS ONE, 2011)
